Experimental data published in patent US20110117208A1, “CHRONIC WOUND TREATMENT” (TECHNOSTICS LIMITED, priority 2008, published 2011).

Assays:
elastase = target: T1, elastase (Sus scrofa, UniProt P00772); assay: Elastin Congo red assay; assay type: biochemical, porcine; conditions: pH 8; FIG. 12, 13, 14
T1 construct: Elastase (from porcine pancreas Type I, aqueous); purchased Sigma-Aldrich Ltd, UK; host or cells: porcine pancreas
Protocol: Elastin Congo red is a commercially available elastin substrate impregnated with the chromophore Congo red. In the presence of elastase the Congo red dye is liberated from the elastin and the resulting colour change can be measured and correlated with elastolytic activity. The elastin Congo red assay was used to determine the inhibitory effect of polyphosphates and trimetaphosphate on the elastase against the elastin Congo red substrate.
A series of test solutions containing between 0-306 mg/ml of the proposed inhibitor were prepared. 100 μl of this test solution was then thoroughly mixed with 100 μl of elastase solution on a vortex mixer. […] of buffered Elastin Congo red solution was then added and mixed. The inhibitor:enzyme:Elastin Congo red sample was then incubated overnight in a heated water bath at 37° C. Samples were then removed from the water bath and placed in iced water to cool for 30 minutes before being centrifuged (Fisher Scientific, accuSpin Model 400 Benchtop Centrifuge) at 13000 rpm for 5 minutes. The absorbance of the supernatant was measured at 540 nm (Labsystems Multiskan Ascent 354, ThermoFisher Scientific, Horsham, West Sussex, UK) using deionised water as a blank. […]

pepsin = target: T2, pepsin (Sus scrofa, UniProt P00791); assay: Trichloroacetic acid (TCA) precipitation assay, pepsin against haemoglobin; assay type: biochemical, porcine; conditions: pH 2; FIG. 4
T2 construct: purchased Sigma-Aldrich Ltd, UK; host or cells: porcine gastric mucosa
T2 sequence (P00791 60-385): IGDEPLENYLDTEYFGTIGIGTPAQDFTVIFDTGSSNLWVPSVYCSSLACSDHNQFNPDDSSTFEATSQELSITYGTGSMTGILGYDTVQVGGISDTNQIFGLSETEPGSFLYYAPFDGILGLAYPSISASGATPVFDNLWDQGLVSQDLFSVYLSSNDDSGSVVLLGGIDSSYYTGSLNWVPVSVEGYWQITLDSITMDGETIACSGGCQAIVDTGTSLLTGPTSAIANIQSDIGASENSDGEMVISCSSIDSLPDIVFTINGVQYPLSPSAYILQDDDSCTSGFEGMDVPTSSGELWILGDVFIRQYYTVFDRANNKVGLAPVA
Protocol: The TCA assay is based on the method described by M. L. Anson (1938). J General Physiol, 22, 79-89. The substrate, bovine haemoglobin, is digested by pepsin. Any remaining undigested haemoglobin is then precipitated with TCA to yield a supernatant which contains only products of digested haemoglobin. The concentration of haemoglobin breakdown products in the supernatant is measured spectrophotometrically and provides an indication of proteinase activity. The TCA precipitation assay was used to determine the inhibitory effect of polyphosphates and trimetaphosphate on the action of pepsin against haemoglobin.
A series of test solutions containing between 0-306 mg/ml of the proposed inhibitor were prepared. 100 μl of this test solution was then thoroughly mixed with 100 μl of pepsin solution on a vortex mixer before 1500 μl of buffered bovine haemoglobin solution was added and mixed. The inhibitor:enzyme:haemoglobin sample was then incubated in a heated water bath for 30 minutes at 37° C. The samples was then removed from the incubator, mixed with 2.0 ml TCA solution and left to stand for 30 minutes in iced water. […] The absorbance of the supernatant was measured at 280 nm (Labsystems Multiskan Ascent 354, ThermoFisher Scientific, Horsham, West Sussex, UK) using deionised water as a blank. […]

T1 sequence (P00772 27-266): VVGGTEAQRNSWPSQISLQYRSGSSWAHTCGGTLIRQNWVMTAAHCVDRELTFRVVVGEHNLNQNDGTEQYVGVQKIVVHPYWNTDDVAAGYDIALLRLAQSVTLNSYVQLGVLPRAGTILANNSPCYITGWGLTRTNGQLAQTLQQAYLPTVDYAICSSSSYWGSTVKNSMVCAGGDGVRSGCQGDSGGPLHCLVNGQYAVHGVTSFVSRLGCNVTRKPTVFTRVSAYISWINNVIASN

O=P1([O-])OP(=O)([O-])OP(=O)([O-])O1.[Na+].[Na+].[Na+] [sodium trimetaphosphate]
inhibition of elastase (in words, comparison) (elastase): could also inhibit elastase across a wide concentration range; however, the extent of inhibition at maximal concentrations was not as large as that observed with polyphosphates | inhibition of pepsin (in words) (pepsin): could also inhibit pepsin across a wide concentration range; however, the potency and extent of inhibition at maximal concentrations was not as large as that observed with polyphosphates
